The results in this text go back to patent US20240415120A1, “BINARY BIOHERBICIDE COMPRISING PELARGONIC ACID” (YPF TECNOLOGÍA S.A., priority 2023, published 2024).

One data set relates to Amaranthus hybridus. Kind of data set: Pre-emergence germination assay in Petri dishes. The note with it: 168 h, A. hybridus, after 7 days of exposure, combined concentration of both active ingredients, read-out: Germination IC50 (Confidence limit 95%). The class given is in vivo. The procedure:
(§1) Aqueous extracts containing binary mixtures of formulations: F1 (citral+pelargonic acid) and F2 (thymoquinone+pelargonic acid), in both cases with a 1:1 ratio between the active compounds and with the addition of an emulsifier (soy lecithin at 35% w/w, YPF Agro, 2022) at 0.2% v/v, were tested in Petri dishes following the methodology disclosed in U.S. Pat. No. 11,083,197, with some modifications. […] The extracts were placed onto 9-cm diameter paper disks in Petri dishes. Then, ten seeds of each species were placed onto paper disks. Subsequently, the dishes were closed under the following experimental conditions: room temperature, 26.0±1.8° C.; relative humidity, 50±9.7%; and photoperiod, 12:12. The seeds were considered germinated if their roots were longer than 1 mm. Aqueous extracts without the addition of the bioactive formulation were used as negative control, whereas atrazine was used as positive control. The assays were performed in triplicates for each concentration.
(§2) The IC50 were obtained using the software POLO PLUS (LeOra Software Company).
(§3) An aqueous extract comprising the emulsifier used in Example 1 at 0.2% w/w was prepared and seeds of different species were exposed to the extract following a methodology as the one used in Example 1. Pure water was used as a negative control.

A further data set has as its system Solanum lycopersicum. The data set can be described thus: Pre-emergence germination assay in Petri dishes. The note with it: 168 h, S. lycopersicum, after 7 days of exposure, combined concentration of both active ingredients, read-out: Germination IC50 (Confidence limit 95%). Type of data set: in vivo. Here is the method: as §1, §2, §3
The test system of the next data set is Lolium multiflorum. The data set can be described thus: Pre-emergence germination assay in Petri dishes. Type of data set: in vivo. Particulars: 168 h, L. multiflorum, after 7 days of exposure, combined concentration of both active ingredients, read-out: Germination IC50 (Confidence limit 95%). The procedure: as §1, §2, §3
The subject of the next data set is seedlings of A. hybridus. Kind of data set: Early post-emergence damage to photosystem II (Fv/Fm fluorometry). The class given is in vivo, Amaranthus hybridus. Particulars: 5 mM. The procedure: • Plant material and culturing conditions Seeds of Amaranthus hybridus were sown on plastic boxes of 15.5×11×4 cm with moist absorbing paper (25 seeds per box). The boxes were placed in a culture chamber at 22° C. and 50 μmol photons m^−2 s^−1 with a photoperiod of 16 hours. […] The application volume for each treatment was 10 ml per box on the absorbing paper. After 7 days post-application, to avoid possible chlorosis symptoms due to a lack of nutrients, 5 ml of nutritive solution were added to each box, with the following formulation: 5.0 mM Ca(NO3)2, 5.0 mM KNO3, 2.0 mM MgSO4, 1.0 mM KH2PO4, 20.0 μM FeNaEDTA, 5.0 μM H3BO3, 0.9 μM MnCl2, 0.8 μM ZnCl2, 0.3 μM CuSO4 y 0.01 μM Na2MoO4, pH 5.5-6.5. The experiments were finished 12 days post-application.
The tested formulations were F1 and F2, both at 5 mM. […]
The objective was to assess the early post-emergence effect of the tested formulations on seedlings of A. hybridus of 7 days post-sowing. At 1, 2, 5, 7 and 12 days post-application the fluorometry measurements (Fv/Fm) were carried out to ascertain the damage to photosystem II, and the plants with bleaching or chlorosis symptoms were counted. […]
For the experiments, three boxes per treatment were used: both experiments had 5 treatments. Each experiment was repeated 3 times (assays 1, 2 and 3), and each assay was analyzed separately. […]

For another data set, the system named is Pseudomonas monteilii. Kind of data set: Effect on growth-promoting bacteria in liquid culture. Type of data set: cell-based. Particulars: C + N 5 mM combined; F3, F4, F5 0.5% v/v; atrazine 5 mM; LB medium, 32° C.; Gompertz model. The procedure: To evaluate the effect of the compositions prepared in Example 6 on growth-promoting bacteria, a model strain of Pseudomonas monteilii was used. The microorganism was inoculated in liquid LB medium (initial optical density at 600 nm=0.1), and incubated in Erlenmeyer flasks at 32° C., 180 rpm. The effect of the active compounds (citral (C)+pelargonic acid (N), at a combined concentration of 5 mM), F3, F4 and F5 (all three at 0.5% v/v) and atrazine (5 mM) was assessed by adding each treatment to the culture medium at the moment of inoculation. The positive growth control was performed without adding any compound. Liquid samples were taken during the growth, and the biomass of the cultures was evaluated using the drop plate method described by Herigstad et al. (2001). Three repetitions were carried out in different times and the results were analyzed with the software Statistica (StatSoft, 2007) to adjust them to the Gompertz model, and thus calculate the growth parameters.

By IC50 is commonly meant the concentration that gives 50% inhibition. Turning to `CCNc1nc(Cl)nc(NC(C)C)n1` [Atrazine, atrazine], the IC50 in the data set with Amaranthus hybridus stood at 41 mM. Further, the IC50 in the data set with Solanum lycopersicum came out at 37.5 mM. Also, the IC50 in the data set on Lolium multiflorum amounted to 39 mM. Also, the “Course of Fv/Fm values” in the data set on seedlings of A. hybridus (day 1 to 12 days post-application) was “gradual fall in the Fv/Fm values from day 1 until reaching minimum or non-measurable values at 12 days”. In the data set with seedlings of A. hybridus (every assay), the “Effects on photosystem II in comparison to treatments F1 and F2” value was “lower effects”. In addition, in the data set with Pseudomonas monteilii, the Duplication time was found to be 22.03 min, the Lag pase length is on record as 1.3 h and the “maximum growth rate μmax” value is 1.89 h⁻¹.
